From the supplement of paper PMC4862054

Key:
Assay in all cases: normalised response (% of control), CellTiter-Glo; higher = more viable cells (100 = DMSO, 0 = benzethonium chloride kill control)
Conditions in all cases: incubation time: 72 h
BT-474 = test system: BT-474
Method in brief: (§1)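 Every value is a normalised signal taken at one concentration of a dilution series. Compound was placed in 384-well plates at 5 concentrations in 10-fold steps over a compound-specific 10,000-fold range, and 20 µl of breast cancer cell suspension was seeded onto it. After 72 h, CellTox Green fluorescence (485/520 nm) was measured first and CellTiter-Glo luminescence second, following 10 min at room temperature. Each plate was scaled to 0.1 % DMSO (100) and a positive kill control (0).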

BT-549 = test system: BT-549
Method in brief: as §1

CAL-120 = test system: CAL-120
Method in brief: as §1

CAL-148 = test system: CAL-148
Method in brief: as §1

CAL-51 = test system: CAL-51
Method in brief: as §1

CAL-85-1 = test system: CAL-85-1
Method in brief: as §1

DU-4475 = test system: DU-4475
Method in brief: as §1

HCC1143 = test system: HCC1143
Method in brief: as §1

HCC1599 = test system: HCC1599
Method in brief: as §1

HCC1937 = test system: HCC1937
Method in brief: as §1

HDQ-P1 = test system: HDQ-P1
Method in brief: as §1

Hs578T = test system: Hs578T
Method in brief: as §1

MCF-10A = test system: MCF-10A
Method in brief: as §1

MDA-MB-231 = test system: MDA-MB-231
Method in brief: as §1

MDA-MB-436 = test system: MDA-MB-436
Method in brief: as §1

MDA-MB-453 = test system: MDA-MB-453
Method in brief: as §1

MDA-MB-468 = test system: MDA-MB-468
Method in brief: as §1

MFM-223 = test system: MFM-223
Method in brief: as §1

SK-BR-3 = test system: SK-BR-3
Method in brief: as §1

| SMILES | normalised response (BT-474) [%] | normalised response (BT-549) [%] | normalised response (CAL-120) [%] | normalised response (CAL-148) [%] | normalised response (CAL-51) [%] | normalised response (CAL-85-1) [%] | normalised response (DU-4475) [%] | normalised response (HCC1143) [%] | normalised response (HCC1599) [%] | normalised response (HCC1937) [%] | normalised response (HDQ-P1) [%] | normalised response (Hs578T) [%] | normalised response (MCF-10A) [%] | normalised response (MDA-MB-231) [%] | normalised response (MDA-MB-436) [%] | normalised response (MDA-MB-453) [%] | normalised response (MDA-MB-468) [%] | normalised response (MFM-223) [%] | normalised response (SK-BR-3) [%] |
| --- | --- | --- | --- | --- | --- | --- | --- | --- | --- | --- | --- | --- | --- | --- | --- | --- | --- | --- | --- |
| Cc1ccc(C(=O)N(CCCN)[C@@H](c2oc3cc(Cl)ccc3c(=O)c2Cc2ccccc2)C(C)C)cc1 (0.01 nM) | 95.3 | 104 | 96.6 | 91.8 | 81.7 | 93.8 | 96.6 | 102 | 112 | 102 | 103 | 97.8 | 97.8 | 99 | 97.3 | 101 | 93 | 92.1 | 93.1 |
| O=C(O)c1ccc(-c2c[nH]c3ncc(-c4ccccc4)cc23)cc1C1CCCC1 (1 nM) | 95.4 | 103 | 94.8 | 96.5 | 125 | 98.4 | 97.3 | 97.5 | 83.8 | 91.1 | 93.7 | 98.3 | 89.7 | 94.2 | 92.8 | 99.3 | 92.9 | 94.5 | 89.6 |
| O=C(O)c1ccc(-c2c[nH]c3ncc(-c4ccccc4)cc23)cc1C1CCCC1 (10 nM) | 91.8 | 98.7 | 95.3 | 90.4 | 105 | 96.3 | 99.2 | 102 | 108 | 101 | 95.9 | 99.6 | 95.9 | 94 | 95.1 | 91.8 | 96 | 94 | – |
| NC(=O)Nc1cc(-c2cccc(F)c2)sc1C(=O)N[C@H]1CCCNC1 [AZD7762] (0.1 nM) | 105 | 105 | 105 | 102 | 77 | 98.4 | 108 | 98.4 | 89.9 | 94.3 | 106 | 99.2 | 98.2 | 105 | 97.5 | 99.9 | 100 | 109 | 105 |
| NC(=O)Nc1cc(-c2cccc(F)c2)sc1C(=O)N[C@H]1CCCNC1 [AZD7762] (1 nM) | 114 | 95.6 | 99.7 | 102 | 95.7 | 98.5 | 104 | 103 | 95.7 | 98.7 | 91.2 | 101 | 103 | 103 | 106 | 94.1 | 102 | 102 | 105 |
| CO[C@H]1/C=C\C=C(/C)C(=O)NC2=CC(=O)C(NCCN(C)C)=C(C[C@@H](C)C[C@H](OC)[C@H](O)[C@@H](C)/C=C(\C)[C@@H]1OC(N)=O)C2=O [Alvespimycin] (1 nM) | 120 | 95.6 | 100 | 112 | 112 | 97.8 | 105 | 97.5 | 102 | 91.6 | 102 | 101 | 106 | 102 | 104 | 113 | 107 | 105 | 105 |
| CN(C)/N=N/c1[nH]cnc1C(N)=O [Dacarbazine] (10 nM) | 105 | 101 | 98.3 | 102 | 103 | 102 | 101 | 103 | 85.9 | 96.3 | 101 | 105 | 101 | 104 | 101 | 111 | 106 | 104 | – |
| COc1cc2ncnc(Nc3ccc(F)c(Cl)c3)c2cc1NC(=O)/C=C/CN1CCCCC1 [Dacomitinib] (1 nM) | 103 | 99.8 | 100 | 112 | 108 | 91.2 | 100 | 106 | 102 | 94.3 | 90.7 | 105 | 97.7 | 101 | 97.8 | 93.8 | 103 | 101 | – |
| Cc1ccc(-n2nc(C(C)(C)C)cc2NC(=O)Nc2ccc(OCCN3CCOCC3)c3ccccc23)cc1 [Doramapimod] (10 nM) | 93.5 | 99.3 | 94.5 | 80.3 | 121 | 96 | 98.3 | 98.3 | 103 | 91.7 | 95.5 | 101 | 90.7 | 96.3 | 98.1 | 85.8 | 94 | 89.5 | – |
| C#Cc1cccc(Nc2ncnc3cc(OCCOC)c(OCCOC)cc23)c1 [Erlotinib] (10 nM) | 99.9 | 97.3 | 102 | 113 | 74.3 | 102 | 105 | 106 | 101 | 96 | 91.7 | 110 | 98.8 | 103 | 103 | 107 | 105 | 111 | – |
| COc1cc([C@@H]2c3cc4c(cc3[C@@H](O[C@@H]3O[C@@H]5CO[C@@H](C)O[C@H]5[C@H](O)[C@H]3O)[C@H]3COC(=O)[C@H]23)OCO4)cc(OC)c1O [Etoposide] (10 nM) | 103 | 97.8 | 103 | 106 | 98.9 | 102 | 104 | 107 | 99.7 | 103 | 99.3 | 104 | 113 | 105 | 106 | 109 | 98.6 | 109 | – |
| CC(C)Cn1cnc2c(N)nc3ccccc3c21 [Imiquimod] (2.5 nM) | 104 | 95 | 103 | 107 | 114 | 98.4 | 109 | 103 | 113 | 96.2 | 97.2 | 111 | 105 | 103 | 95.8 | 104 | 104 | 105 | – |
| Cn1c(Nc2ccc(C(F)(F)F)cc2)nc2cc(Oc3ccnc(-c4ncc(C(F)(F)F)[nH]4)c3)ccc21 [RAF265] (1 nM) | 106 | 96.7 | 104 | 112 | 111 | 104 | 109 | 109 | 102 | 103 | 100 | 105 | 112 | 98.5 | 105 | 127 | 104 | 114 | – |
| CS(=O)(=O)c1ccc(C2=C(c3ccccc3)C(=O)OC2)cc1 [Rofecoxib] (10 nM) | 103 | 89.7 | 102 | 115 | 73 | 102 | 105 | 106 | 89 | 104 | 102 | 114 | 107 | 102 | 102 | 110 | 104 | 113 | – |
| CNCc1ccc(-c2[nH]c3cc(F)cc4c3c2CCNC4=O)cc1 [Rucaparib] (10 nM) | 93.6 | 96.9 | 94.2 | 82.7 | 112 | 98.9 | 98.3 | 100 | 102 | 102 | 96.8 | 98.5 | 98.4 | 97.2 | 99.5 | 93.9 | 92.3 | 93.5 | – |
| CCC(C)(C)C(=O)O[C@H]1C[C@@H](C)C=C2C=C[C@H](C)[C@H](CC[C@@H]3C[C@@H](O)CC(=O)O3)[C@H]21 [Simvastatin] (1 nM) | – | 98.9 | 100 | 102 | 114 | 96.8 | 102 | 102 | 111 | 103 | 98.5 | 103 | 107 | 94.8 | – | 106 | 100 | – | 105 |
| CCC(C)(C)C(=O)O[C@H]1C[C@@H](C)C=C2C=C[C@H](C)[C@H](CC[C@@H]3C[C@@H](O)CC(=O)O3)[C@H]21 [Simvastatin] (10 nM) | – | – | 96 | 103 | 115 | 96.2 | 104 | 98.7 | – | – | 103 | 96.3 | 108 | 99.2 | 98.1 | 98.3 | 103 | 102 | – |
| CN(N=O)C(=O)N[C@@H](C=O)[C@@H](O)[C@H](O)[C@H](O)CO [Streptozocin] (10 nM) | 109 | – | 100 | 108 | 77.4 | 98.9 | 106 | 105 | – | 109 | 102 | 104 | 105 | 104 | 98.1 | 106 | 114 | 108 | 102 |
| CN[C@@H]1C[C@H]2O[C@@](C)([C@@H]1OC)n1c3ccccc3c3c4c(c5c6ccccc6n2c5c31)C(=O)N[C@H]4O [UCN-01] (10 nM) | 83.8 | 98.4 | 80.2 | 108 | 106 | 95.1 | 101 | 95.9 | 94 | 94.3 | 96.6 | 92.4 | 90.5 | 81.1 | 106 | 91.8 | 97.3 | 102 | – |
| Clc1ccc(Nc2nnc(Cc3ccncc3)c3ccccc23)cc1 [Vatalanib] (10 nM) | 105 | 95 | 96 | 109 | 127 | 100 | 106 | 102 | 89.6 | 102 | 102 | 100 | 105 | 104 | 107 | 104 | 102 | 102 | – |
| CCC1=C[C@@H]2CN(C1)Cc1c([nH]c3ccccc13)[C@@](C(=O)OC)(c1cc3c(cc1OC)N(C)[C@H]1[C@@](O)(C(=O)OC)[C@H](OC(C)=O)[C@]4(CC)C=CCN5CC[C@]31[C@@H]54)C2 [Vinorelbine] (10 nM) | 99.3 | 97.6 | 96.6 | 107 | 87.5 | 98.1 | 101 | 97.5 | 84.7 | 99.1 | 99.4 | 101 | 102 | 101 | 94.4 | 80.7 | 95.8 | 106 | – |
